Measurements published in patent publication US10722501B2 (BAYER AKTIENGESELLSCHAFT, priority 2016, dated 2020).

target: T1, recombinant full-length human prolyl endopeptidase (PREP) (Homo sapiens, UniProt P48147); test: Biochemical human prolyl endopeptidase (PREP) assay with fluorescently labelled substrate; details: substrate Z-Gly-Pro-AMC 50 μM, 32° C., 60 min; some as mean values from multiple independent determinations
T1 construct: To recombinant full-length human prolyl endopeptidase (PREP, R&D-Systems, 4308-SE); purchased R&D-Systems 4308-SE
T1 sequence (P48147 1-710): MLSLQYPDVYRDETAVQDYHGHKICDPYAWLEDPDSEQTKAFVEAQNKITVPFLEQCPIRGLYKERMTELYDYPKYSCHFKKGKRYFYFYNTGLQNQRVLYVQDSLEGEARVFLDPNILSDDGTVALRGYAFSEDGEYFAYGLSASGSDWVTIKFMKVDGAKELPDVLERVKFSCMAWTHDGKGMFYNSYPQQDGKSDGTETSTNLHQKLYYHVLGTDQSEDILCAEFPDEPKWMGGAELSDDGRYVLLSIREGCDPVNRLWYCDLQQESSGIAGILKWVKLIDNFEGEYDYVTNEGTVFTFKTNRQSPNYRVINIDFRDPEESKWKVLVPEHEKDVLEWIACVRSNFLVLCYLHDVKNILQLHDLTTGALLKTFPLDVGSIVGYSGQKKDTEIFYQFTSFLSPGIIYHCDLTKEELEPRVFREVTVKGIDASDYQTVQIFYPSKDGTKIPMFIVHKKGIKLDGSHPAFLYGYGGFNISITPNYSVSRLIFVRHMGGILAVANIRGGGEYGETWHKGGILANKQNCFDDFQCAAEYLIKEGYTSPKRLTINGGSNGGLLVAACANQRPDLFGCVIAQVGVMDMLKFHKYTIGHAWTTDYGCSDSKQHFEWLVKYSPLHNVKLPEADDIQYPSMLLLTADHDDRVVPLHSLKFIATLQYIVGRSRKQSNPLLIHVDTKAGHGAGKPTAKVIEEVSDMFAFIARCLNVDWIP
Method in brief: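 0.4 nM (final, example) recombinant PREP in pH 7.5 Tris buffer with EDTA, GSH, BSA and Brij-35; compounds at 1 nM to 30 μM. Reaction started with 50 μM Z-Gly-Pro-AMC and followed by fluorescence (ex 360/em 465 nm) at 32° C for 60 min. IC50 interpolated from percent activity based on initial slopes.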

| Compound | IC50 [nM] |
| --- | --- |
| O=C([C@@H]1CCCc2nn(CC3(c4ccc(F)cc4)CC3)c(=O)n21)N1CC(F)C1 [Example 351, (5S)-5-[(3-Fluoroazetidin-1-yl)carbonyl]-2-{[1-(4-fluorophenyl)cyclopropyl]methyl}-5,6,7,8-tetrahydro[1,2,4]triazolo[4,3-a]pyridin-3(2H)-one] | 1.6 |
| Cc1ccc(Cn2nc3n(c2=O)C(C(=O)N2CCOCC2)CCC3)cc1 (racemic) [Example 159, (5RS)-2-(4-Methylbenzyl)-5-(morpholin-4-ylcarbonyl)-5,6,7,8-tetrahydro[1,2,4]triazolo[4,3-a]pyridin-3(2H)-one] | 16 |
| O=C(C1CC(C(F)(F)F)Cc2nn(Cc3cncc(Cl)c3)c(=O)n21)N1C[C@@H](F)[C@@H](F)C1 (single isomer, unassigned) [Example 269] | 4.2 |
| O=C([C@@H]1CCCc2nn(Cc3cccc(Cl)n3)c(=O)n21)N1CC(F)C1 [Example 384, (5S)-2-[(6-Chloropyridin-2-yl)methyl]-5-[(3-fluoroazetidin-1-yl)carbonyl]-5,6,7,8-tetrahydro[1,2,4]triazolo[4,3-a]pyridin-3(2H)-one] | 11 |
| O=C(C1CCCc2nn(Cc3ccc(C(F)(F)F)nc3)c(=O)n21)N1CCC(F)(F)C1 (racemic) [Example 79, (5RS)-5-[(3,3-Difluoropyrrolidin-1-yl)carbonyl]-2-{[6-(trifluoromethyl)pyridin-3-yl]methyl}-5,6,7,8-tetrahydro[1,2,4]triazolo[4,3-a]pyridin-3(2H)-one] | 6.7 |
| Cc1ccc(Cn2nc3n(c2=O)[C@H](C(=O)N2C[C@H](F)[C@@H](F)C2)CCC3)cc1 [Example 140, (5S)-5-{[(3S,4S)-3,4-Difluoropyrrolidin-1-yl]carbonyl}-2-(4-methylbenzyl)-5,6,7,8-tetrahydro[1,2,4]triazolo[4,3-a]pyridin-3(2H)-one] | 16 |
| O=C(C1CC(C(F)(F)F)Cc2nn(Cc3ccnc(C(F)(F)F)c3F)c(=O)n21)N1CC[C@H](F)C1 (mixture of isomers) [Example 256, (5RS,7RS)-5-{[(3S)-3-Fluoropyrrolidin-1-yl]carbonyl}-2-{[3-fluoro-2-(trifluoromethyl)pyridin-4-yl]methyl}-7-(trifluoromethyl)-5,6,7,8-tetrahydro[1,2,4]triazolo[4,3-a]pyridin-3(2H)-one] | 1.7 |
| O=C(C1CCCc2nn(Cc3ccc(C(F)(F)F)nc3)c(=O)n21)N1CC(F)C1 (racemic) [Example 96, (5RS)-5-[(3-Fluoroazetidin-1-yl)carbonyl]-2-{[6-(trifluoromethyl)pyridin-3-yl]methyl}-5,6,7,8-tetrahydro[1,2,4]triazolo[4,3-a]pyridin-3(2H)-one] | 7.4 |
| COc1ccc(Cn2nc3n(c2=O)C(C(=O)N2CCCC2)CCC3)cc1 (racemic) [Example 36, (5RS)-2-(4-Methoxybenzyl)-5-(pyrrolidin-1-ylcarbonyl)-5,6,7,8-tetrahydro[1,2,4]triazolo[4,3-a]pyridin-3(2H)-one] | 3.65 |
| CS(=O)(=O)c1ccc(Cn2nc3n(c2=O)C(C(=O)N2CCCC2)CCC3)cc1 (racemic) [Example 6, (5RS)-2-[4-(Methylsulphonyl)benzyl]-5-(pyrrolidin-1-ylcarbonyl)-5,6,7,8-tetrahydro[1,2,4]triazolo[4,3-a]pyridin-3(2H)-one] | 120 |
| COc1ccc(Cn2nc3n(c2=O)[C@H](C(=O)N2C[C@@H](F)[C@@H](F)C2)CCC3)nc1 [Example 380, (5S)-5-{[(3R,4S)-3,4-Difluoropyrrolidin-1-yl]carbonyl}-2-[(5-methoxypyridin-2-yl)methyl]-5,6,7,8-tetrahydro[1,2,4]triazolo[4,3-a]pyridin-3(2H)-one] | 2.1 |
| O=C(C1CC(C(F)(F)F)Cc2nn(Cc3ccc(Cl)cn3)c(=O)n21)N1CC[C@H](F)C1 (single isomer, unassigned) [Example 315] | 1.4 |
| O=C(C1C(C(F)(F)F)CCc2nn(Cc3ncc(Cl)cc3F)c(=O)n21)N1C[C@@H](F)[C@@H](F)C1 (mixture of isomers) [Example 291, (5RS,6RS)-2-[(5-Chloro-3-fluoropyridin-2-yl)methyl]-5-{[(3R,4S)-3,4-difluoropyrrolidin-1-yl]carbonyl}-6-(trifluoromethyl)-5,6,7,8-tetrahydro[1,2,4]triazolo[4,3-a]pyridin-3(2H)-one] | 96.5 |
| Cc1ccc(C2(Cn3nc4n(c3=O)[C@H](C(=O)N3CCC(F)(F)C3)CCC4)CC2)cc1 [Example 524, (5S)-5-[(3,3-Difluoropyrrolidin-1-yl)carbonyl]-2-{[1-(4-methylphenyl)cyclopropyl]methyl}-5,6,7,8-tetrahydro[1,2,4]triazolo[4,3-a]pyridin-3(2H)-one] | 2.9 |
| O=C([C@@H]1CCCc2nn(Cc3ccc(Cl)cn3)c(=O)n21)N1CCC(F)(F)C1 [Example 377, (5S)-2-[(5-Chloropyridin-2-yl)methyl]-5-[(3,3-difluoropyrrolidin-1-yl)carbonyl]-5,6,7,8-tetrahydro[1,2,4]triazolo[4,3-a]pyridin-3(2H)-one] | 6.86 |
| O=C(C1C(C(F)(F)F)CCc2nn(Cc3ccc(Cl)cn3)c(=O)n21)N1CC(F)C1 (single isomer, unassigned) [Example 311, (5RS,6RS)-2-[(5-Chloropyridin-2-yl)methyl]-5-[(3-fluoroazetidin-1-yl)carbonyl]-6-(trifluoromethyl)-5,6,7,8-tetrahydro[1,2,4]triazolo[4,3-a]pyridin-3(2H)-one] | 30 |

These reach a lower IC50. Values come first.

| IC50 [nM] | Compound |
| --- | --- |
| 1.3 | Cc1ccc(Cn2nc3n(c2=O)[C@H](C(=O)N2CCCC2)CC3)cc1 [Example 157, (5S)-2-(4-Methylbenzyl)-5-(pyrrolidin-1-ylcarbonyl)-2,5,6,7-tetrahydro-3H-pyrrolo[2,1-c][1,2,4]triazol-3-one] |
| 0.82 | O=C([C@@H]1CCCc2nn(Cc3ccc(F)c(Cl)c3)c(=O)n21)N1CCC2CC21 (single isomer, unassigned) [Example 203] |
| 0.79 | Cn1nc(Cn2nc3n(c2=O)[C@H](C(=O)N2C[C@@H](F)[C@@H](F)C2)CCC3)c2cccnc21 [Example 414, (5S)-5-{[(3R,4S)-3,4-Difluoropyrrolidin-1-yl]carbonyl}-2-[(1-methyl-1H-pyrazolo[3,4-b]pyridin-3-yl)methyl]-5,6,7,8-tetrahydro[1,2,4]triazolo[4,3-a]pyridin-3(2H)-one] |
| 0.695 | O=C(C1CCC(C(F)(F)F)c2nn(Cc3ccc(C(F)(F)F)nc3)c(=O)n21)N1CC[C@H](F)C1 (single isomer, unassigned) [Example 272] |
| 0.69 | CC1CCC(C(=O)N2CC[C@H](F)C2)n2c1nn(Cc1ccc(F)c(Cl)c1)c2=O (mixture of isomers) [Example 320, (5RS,8RS)-2-(3-Chloro-4-fluorobenzyl)-5-{[(3S)-3-fluoropyrrolidin-1-yl]carbonyl}-8-methyl-5,6,7,8-tetrahydro[1,2,4]triazolo[4,3-a]pyridin-3(2H)-one] |
| 0.41 | Cc1ccc(Cn2nc3n(c2=O)[C@H](C(=O)N2CC[C@@H](F)C2)CCC3)cc1 [Example 111, (5S)-5-{[(3R)-3-Fluoropyrrolidin-1-yl]carbonyl}-2-(4-methylbenzyl)-5,6,7,8-tetrahydro[1,2,4]triazolo[4,3-a]pyridin-3(2H)-one] |
| 0.36 | O=C([C@@H]1CCCc2nn(Cc3ccc(F)cc3Cl)c(=O)n21)N1C[C@@H](F)[C@@H](F)C1 [Example 474, (5S)-2-(2-Chloro-4-fluorobenzyl)-5-{[(3R,4S)-3,4-difluoropyrrolidin-1-yl]carbonyl}-5,6,7,8-tetrahydro[1,2,4]triazolo[4,3-a]pyridin-3(2H)-one] |
| 0.35 | O=C([C@@H]1CCC(F)(F)c2nn(Cc3ncc(C(F)(F)F)cc3Cl)c(=O)n21)N1CC[C@H](F)C1 [Example 589, (5S)-2-{[3-Chloro-5-(trifluoromethyl)pyridin-2-yl]methyl}-8,8-difluoro-5-{[(3S)-3-fluoropyrrolidin-1-yl]carbonyl}-5,6,7,8-tetrahydro[1,2,4]triazolo[4,3-a]pyridin-3(2H)-one] |
| 0.3 | O=C([C@@H]1CCCc2nn(CC3(c4ccc(C(F)(F)F)cc4)CC3)c(=O)n21)N1CC[C@H](F)C1 [Example 356, (5S)-5-{[(3S)-3-Fluoropyrrolidin-1-yl]carbonyl}-2-({1-[4-(trifluoromethyl)phenyl]cyclopropyl}methyl)-5,6,7,8-tetrahydro[1,2,4]triazolo[4,3-a]pyridin-3(2H)-one] |
| 0.27 | O=C([C@@H]1CCCc2nn(Cc3ccc(Br)cc3)c(=O)n21)N1C[C@@H](F)[C@@H](F)C1 [Example 210, (5S)-2-(4-Bromobenzyl)-5-{[(3R,4S)-3,4-difluoropyrrolidin-1-yl]carbonyl}-5,6,7,8-tetrahydro[1,2,4]triazolo[4,3-a]pyridin-3(2H)-one] |
